Drawing on ChEMBL document CHEMBL1158778, “Paecilosetin, a new bioactive fungal metabolite from a New Zealand isolate of Paecilomyces farinosus” (J Nat Prod, 2005), this text covers IC50 and zone of inhibition for two compounds.

Values after ≈ are worked out from the molar mass of the structure shown.

One test relates to P388. Nature of the test: Cytotoxicity against mouse P388 cells by MTT assay. The format is functional, cell-based. (In general: Tetrazolium assays rely on reduction of a dye to a coloured formazan, in cell work by metabolically active cells.)
Test [1] deals with Trichophyton mentagrophytes. The test can be described thus: Antimicrobial activity against Trichophyton mentagrophytes at 40 ug/disk by agar diffusion assay. The format is functional. As to conditions: read-out: IZ. (In agar diffusion tests the substance spreads into inoculated agar from a disc or well.)
The subject of the next test is Bacillus subtilis. The test can be described thus: Antimicrobial activity against Bacillus subtilis at 5 ug/disk by agar diffusion assay. The class given is functional. As to conditions: read-out: IZ.
A further test deals with Amorphotheca resinae. The test can be described thus: Antimicrobial activity against Cladosporium resinae at 40 ug/disk by agar diffusion assay. Particulars: read-out: IZ. The class given is functional.

The IC50 is the concentration at which inhibition is half-maximal. A low value points to higher potency. In the test on P388, `CCC(C)/C=C(C)/C=C/C=C/C=C/C(=O)c1c(O)c(-c2ccc(O)cc2)cn(O)c1=O` (stereo not given) [FARINOSONE B] yielded an IC50 of 1.1 µg/mL (≈ 2.61 µM).
In the case of `C/C=C/[C@@H]1C=C[C@@H]2C[C@H](C)CC[C@H]2[C@]1(C)/C(O)=C1\C(=O)N[C@@H](C(C)O)C1=O` (stereo not given in full) [PAECILOSETIN], the figures for the zone of inhibition at 40 µg/disc (in test [1]; in the test with Amorphotheca resinae) were 3 mm and 1 mm, respectively. Moreover, half-maximal inhibition in the test on P388 (IC50) required 3.2 µg/mL (≈ 8.57 µM). Moreover, the zone of inhibition at 5 µg/disc in the test on Bacillus subtilis turned out to be 3 mm.
